Our source for the IC50 values is patent US20220073496A1, “NOVEL QUINOLINE DERIVATIVE INHIBITOR” (Nanjing Transthera Biosciences Co., Ltd., priority 2018, published 2022).

For this test, the target named is T1, pCSF1R in CSF1R plasmid-transfected HEK293T cells (Homo sapiens, UniProt P07333).
T1 construct: expressed in transfected cells; host or cells: HEK293T
The experiment in a line: Inhibitory activity on the cell pCSF1R (Western Blot). Conditions: compound 30, 100, 300, 1000 nM, 120 minutes. The test is classed as cell-based. The procedure: Assay 7: Test for Inhibitory Activities of the Compounds of the Present Invention on the Cell pCSF1R
HEK293T is a human renal epithelial cell.
Test substances: the compounds of the present invention, wherein the structures thereof were as described above.
Test equipment: protein electrophoresis apparatus (manufactured by Bio Rad), transfer unit (manufactured by Bio Rad), exposure unit (manufactured by Tanon), CO2 cell incubator (manufactured by Thermo).
The BEK293T cells were inoculated in a 6-well plate (containing 10% FBS DMEM medium, 4×10^5 cells per well), and adherent cells were cultivated at 37° C. in a 5% CO2 condition for 6 hours. Each well was transfected with 2 μg CSF1R plasmid, and the cells were cultivated at 37° C. in a 5% CO2 condition overnight. At 24 hours after transfection, different concentrations of compounds were added to the administration group. The final compound concentrations were 30, 100, 300, and 1000 nM, and the final DMSO content was 1‰. The negative control wells contained the medium containing 1‰ DMSO. […] The inhibitory activity of the compound on the cell pCSF1R was examined.
(In general: A western blot detects proteins with antibodies after separation by electrophoresis.)

T1 sequence (P07333 20-972): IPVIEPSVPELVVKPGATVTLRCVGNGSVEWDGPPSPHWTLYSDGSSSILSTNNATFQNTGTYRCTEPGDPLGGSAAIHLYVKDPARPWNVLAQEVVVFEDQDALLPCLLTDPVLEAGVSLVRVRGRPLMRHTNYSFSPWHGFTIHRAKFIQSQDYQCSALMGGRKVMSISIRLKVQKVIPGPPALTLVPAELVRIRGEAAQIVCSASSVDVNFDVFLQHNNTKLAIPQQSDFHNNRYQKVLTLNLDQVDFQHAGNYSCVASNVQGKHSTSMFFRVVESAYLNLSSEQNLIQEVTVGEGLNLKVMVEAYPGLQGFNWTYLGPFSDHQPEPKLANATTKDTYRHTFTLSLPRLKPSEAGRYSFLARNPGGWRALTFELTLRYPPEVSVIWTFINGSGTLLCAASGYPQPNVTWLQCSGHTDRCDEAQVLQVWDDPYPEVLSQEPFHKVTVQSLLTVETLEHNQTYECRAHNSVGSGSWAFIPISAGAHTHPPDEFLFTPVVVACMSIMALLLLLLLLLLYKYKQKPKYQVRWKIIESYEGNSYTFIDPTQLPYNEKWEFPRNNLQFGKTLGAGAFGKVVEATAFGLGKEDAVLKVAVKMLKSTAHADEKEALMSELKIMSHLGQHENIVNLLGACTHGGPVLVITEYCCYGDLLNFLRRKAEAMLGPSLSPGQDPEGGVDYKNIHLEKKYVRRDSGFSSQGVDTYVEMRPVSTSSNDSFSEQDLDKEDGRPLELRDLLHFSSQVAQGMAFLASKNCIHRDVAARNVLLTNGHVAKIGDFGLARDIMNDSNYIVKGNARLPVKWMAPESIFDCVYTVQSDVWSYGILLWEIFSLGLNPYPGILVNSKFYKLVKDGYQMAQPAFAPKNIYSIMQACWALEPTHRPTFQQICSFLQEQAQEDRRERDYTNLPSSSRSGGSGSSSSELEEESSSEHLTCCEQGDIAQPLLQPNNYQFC

A word on the IC50: it is the point on the concentration scale where inhibition reaches its midpoint. A higher IC50 goes with weaker potency in that assay. As to `COc1cc2nccc(Oc3ccc(NC(=O)c4nn(C(C)C)cc(-c5ccc(F)cc5)c4=O)nc3)c2cc1OC` [Compound 15, N-(5-((6,7-dimethoxyquinolin-4-yl)oxy)pyridin-2-yl)-5-(4-fluorophenyl)-1-isopropyl-4-oxo-1,4-dihydropyridazine-3-carboxamide], the IC50 is 100 to 300 nM.
As for `COc1cc2nccc(Oc3ccc(NC(=O)c4nn(C5CC5)cc(-c5ccc(F)cc5)c4=O)nc3)c2cc1OC` [Compound 31], the figure is 30 to 100 nM.
